{"source": "ChEMBL document CHEMBL4602659", "about": "“β,β-Dimethylacrylshikonin Induces Apoptosis in Melanoma Cell Lines by NOXA Upregulation” (J Nat Prod, 2020)", "key": {"MUGMel1 [1]": {"test_system": "MUGMel1", "experiment": "Cytotoxicity against human MUGMel1 cells assessed as reduction in cell viability after 72 hrs by EZ4U reagent based spectrophotometric method", "type": "functional", "details": "MUGMel1, 72 h"}, "MUGMel2 [2]": {"test_system": "MUGMel2", "experiment": "Cytotoxicity against human MUGMel2 cells harboring NRAS pQ61K mutant assessed as reduction in cell viability after 24 hrs by EZ4U reagent based spectrophotometric method", "type": "functional", "details": "MUGMel2, 24 h"}, "WM793 [3]": {"test_system": "WM793", "experiment": "Cytotoxicity against human WM793 cells harboring BRAF V600E mutant assessed as reduction in cell viability after 24 hrs by EZ4U reagent based spectrophotometric method", "type": "functional", "details": "WM793, 24 h"}, "WM793 [4]": {"test_system": "WM793", "experiment": "Cytotoxicity against human WM793 cells harboring BRAF V600E mutant assessed as reduction in cell viability after 48 hrs by EZ4U reagent based spectrophotometric method", "type": "functional", "details": "WM793, 48 h"}, "MUGMel2 [5]": {"test_system": "MUGMel2", "experiment": "Induction of apoptosis in human MUGMel2 cells assessed as viable cells at IC50 concentration after 6 hrs by Annexin V/SYTOX Green based flow cytometric analysis (reference value: 91.12%)", "type": "functional"}, "MUGMel2 [6]": {"test_system": "MUGMel2", "experiment": "Induction of apoptosis in human MUGMel2 cells assessed as necrotic cells at IC50 concentration after 6 hrs by Annexin V/SYTOX Green based flow cytometric analysis (reference value: 0.3%)", "type": "functional"}, "SBcl2 [7]": {"test_system": "SBcl2", "experiment": "Induction of apoptosis in human SBcl2 cells assessed as viable cells at IC50 concentration after 6 hrs by Annexin V/SYTOX Green based flow cytometric analysis (reference value: 80.68%)", "type": "functional"}, "SBcl2 [8]": {"test_system": "SBcl2", "experiment": "Induction of apoptosis in human SBcl2 cells assessed as late apoptotic cells at IC50 concentration after 6 hrs by Annexin V/SYTOX Green based flow cytometric analysis (reference value: 14.91%)", "type": "functional"}, "WM164 [9]": {"test_system": "WM164", "experiment": "Induction of apoptosis in human WM164 cells assessed as early apoptotic cells at IC50 concentration after 6 hrs by Annexin V/SYTOX Green based flow cytometric analysis (reference value: 3.01%)", "type": "functional"}, "MUGMel1 [10]": {"test_system": "MUGMel1", "experiment": "Induction of apoptosis in human MUGMel1 cells assessed as viable cells at IC50 concentration after 24 hrs by Annexin V/SYTOX Green based flow cytometric analysis (reference value: 95.13%)", "type": "functional"}, "SBcl2 [11]": {"test_system": "SBcl2", "experiment": "Induction of apoptosis in human SBcl2 cells assessed as early apoptotic cells at IC50 concentration after 6 hrs by Annexin V/SYTOX Green based flow cytometric analysis (reference value: 3.77%)", "type": "functional"}, "SBcl2 [12]": {"test_system": "SBcl2", "experiment": "Induction of apoptosis in human SBcl2 cells assessed as late apoptotic cells at IC50 concentration after 24 hrs by Annexin V/SYTOX Green based flow cytometric analysis (reference value: 22.96%)", "type": "functional"}, "SBcl2 [13]": {"test_system": "SBcl2", "experiment": "Induction of apoptosis in human SBcl2 cells assessed as necrotic cells at IC50 concentration after 24 hrs by Annexin V/SYTOX Green based flow cytometric analysis (reference value: 0.21%)", "type": "functional"}, "WM793 [14]": {"test_system": "WM793", "experiment": "Induction of apoptosis in human WM793 cells assessed as early apoptotic cells at IC50 concentration after 24 hrs by Annexin V/SYTOX Green based flow cytometric analysis (reference value: 2.64%)", "type": "functional"}, "B16-F0": {"test_system": "B16-F0", "experiment": "Cytotoxicity against mouse B16F0 cells assessed as reduction in cell viability after 24 hrs by MTT assay", "type": "functional, cell-based", "details": "B16F0, 24 h"}, "MUGMel1 [15]": {"test_system": "MUGMel1", "experiment": "Induction of apoptosis in human MUGMel1 cells assessed as increase in caspase -3 activity at IC50 concentration after 24 hrs in presence of caspase -inhibitor by Alexa Fluor 647 antibody based flow cytometric analysis", "type": "functional, cell-based"}, "WM164 [16]": {"test_system": "WM164", "experiment": "Induction of apoptosis in human WM164 cells assessed as up regulation of PMAIP1 at IC50 concentration after 24 hrs by mRNA sequencing method relative to control", "type": "functional"}, "SBcl2 [17]": {"test_system": "SBcl2", "experiment": "Antitumour activity against human SBcl2 cells xenografted in NU(NCr)-Foxn1 mouse assessed as increase in caspase -activity at 2 ug/g administered for three consecutive days with 1 day interval for four cycle by hematoxylin and eosin staining based microscopic analysis", "type": "functional, cell-based"}, "WM793 [18]": {"test_system": "WM793", "experiment": "Induction of apoptosis in human WM793 cells assessed as effect on BAX mRNA expression at IC50 concentration after 6 to 24 hrs by RT-qPCR analysis", "type": "functional, cell-based"}, "WM164 [19]": {"test_system": "WM164", "experiment": "Induction of apoptosis in human WM164 cells assessed as effect on BAX mRNA expression at IC50 concentration after 6 to 24 hrs by RT-qPCR analysis", "type": "functional, cell-based"}, "SBcl2 [20]": {"test_system": "SBcl2", "experiment": "Induction of apoptosis in human SBcl2 cells assessed as effect on BAD mRNA expression at IC50 concentration after 6 to 24 hrs by RT-qPCR analysis", "type": "functional, cell-based"}, "MUGMel1 [21]": {"test_system": "MUGMel1", "experiment": "Induction of apoptosis in human MUGMel1 cells assessed as effect on BAX mRNA expression at IC50 concentration after 6 to 24 hrs by RT-qPCR analysis", "type": "functional, cell-based"}, "MUGMel1 [22]": {"test_system": "MUGMel1", "experiment": "Induction of apoptosis in human MUGMel1 cells assessed as up regulation of PUMA at IC50 concentration after 6 to 24 hrs by RT-qPCR analysis", "type": "functional, cell-based"}, "WM793 [23]": {"test_system": "WM793", "experiment": "Induction of apoptosis in human WM793 cells assessed as up regulation of NOXA at IC50 concentration after 6 to 24 hrs by RT-qPCR analysis", "type": "functional, cell-based"}, "WM164 [24]": {"test_system": "WM164", "experiment": "Induction of apoptosis in human WM164 cells assessed as up regulation of NOXA at IC50 concentration after 6 to 24 hrs by RT-qPCR analysis", "type": "functional, cell-based"}, "SBcl2 [25]": {"test_system": "SBcl2", "experiment": "Induction of apoptosis in human SBcl2 cells treated with scrambled si-RNA assessed as caspase -activity at IC50 concentration after 24 hrs by Western blot analysis", "type": "functional, cell-based"}, "WM164 [26]": {"test_system": "WM164", "experiment": "Induction of apoptosis in human WM164 cells treated with scrambled si-RNA assessed as up regulation of NOXA protein expression at IC50 concentration after 24 hrs by Western blot analysis", "type": "functional, cell-based"}, "WM793 [27]": {"test_system": "WM793", "experiment": "Induction of apoptosis in human WM793 cells assessed as effect on BAX protein expression at IC50 concentration after 24 hrs by Western blot analysis", "type": "functional, cell-based"}, "WM164 [28]": {"test_system": "WM164", "experiment": "Induction of apoptosis in human WM164 cells assessed as effect on PUMA protein expression at IC50 concentration after 24 hrs by Western blot analysis", "type": "functional, cell-based"}, "SBcl2 [29]": {"test_system": "SBcl2", "experiment": "Induction of apoptosis in human SBcl2 cells assessed as effect on PUMA protein expression at IC50 concentration after 24 hrs by Western blot analysis", "type": "functional, cell-based"}, "SBcl2 [30]": {"test_system": "SBcl2", "experiment": "Induction of apoptosis in human SBcl2 cells assessed as effect on BAD protein expression at IC50 concentration after 24 hrs by Western blot analysis", "type": "functional, cell-based"}, "MUGMel1 [31]": {"test_system": "MUGMel1", "experiment": "Induction of apoptosis in human MUGMel1 cells assessed as effect on PUMA protein expression at IC50 concentration after 24 hrs by Western blot analysis", "type": "functional, cell-based"}, "MUGMel1 [32]": {"test_system": "MUGMel1", "experiment": "Induction of apoptosis in human MUGMel1 cells assessed as effect on BAD protein expression at IC50 concentration after 24 hrs by Western blot analysis", "type": "functional, cell-based"}, "SBcl2 [33]": {"test_system": "SBcl2", "experiment": "Antitumour activity against human SBcl2 cells xenografted in NU(NCr)-Foxn1 mouse assessed as decrease in tumour size at 2 ug/g administered for three consecutive days with 1 day interval for four cycle", "type": "functional, cell-based"}, "WM164 [34]": {"test_system": "WM164", "experiment": "Antitumour activity against human WM164 cells xenografted in NU(NCr)-Foxn1 mouse assessed as decrease in tumour size at 2 ug/g administered for three consecutive days with 1 day interval for four cycle", "type": "functional, cell-based"}}, "note": "The source made the active and inactive calls. The calls are words filed in the database; no cut-off is given here."}
{"smiles": "CC(C)=CC[C@@H](OC(=O)C=C(C)C)C1=CC(=O)c2c(O)ccc(O)c2C1=O", "note": "[DIMETHYLACRYLSHIKONIN]", "values": [{"measurement": "IC50", "setting": "MUGMel1 [1]", "value": 1, "unit": "µM"}, {"measurement": "IC50", "setting": "MUGMel2 [2]", "value": 5.1, "unit": "µM"}, {"measurement": "IC50", "setting": "WM793 [3]", "value": 1.2, "unit": "µM"}, {"measurement": "IC50", "setting": "WM793 [4]", "value": 0.8, "unit": "µM"}, {"measurement": "Activity", "setting": "MUGMel2 [5]", "value": 75.52, "unit": "%"}, {"measurement": "Activity", "setting": "MUGMel2 [6]", "value": 0.39, "unit": "%"}, {"measurement": "Activity", "setting": "SBcl2 [7]", "value": 21.29, "unit": "%"}, {"measurement": "Activity", "setting": "SBcl2 [8]", "value": 70.21, "unit": "%"}, {"measurement": "Activity", "setting": "WM164 [9]", "value": 2.47, "unit": "%"}, {"measurement": "Activity", "setting": "MUGMel1 [10]", "value": 49.48, "unit": "%"}, {"measurement": "Activity", "setting": "SBcl2 [11]", "value": 16.44, "unit": "%"}, {"measurement": "Activity", "setting": "SBcl2 [12]", "value": 77.12, "unit": "%"}, {"measurement": "Activity", "setting": "SBcl2 [13]", "value": 0, "unit": "%"}, {"measurement": "Activity", "setting": "WM793 [14]", "value": 13.71, "unit": "%"}, {"measurement": "IC50", "setting": "B16-F0", "value": "1.2 to 5.1", "unit": "µM"}, {"measurement": "Activity", "setting": "MUGMel1 [15]", "value": "inactive"}, {"measurement": "fold change (FC)", "setting": "WM164 [16]", "value": 1.6}, {"measurement": "Activity", "setting": "SBcl2 [17]", "value": "Active"}, {"measurement": "Activity", "setting": "WM793 [18]", "value": "inactive"}, {"measurement": "Activity", "setting": "WM164 [19]", "value": "inactive"}, {"measurement": "Activity", "setting": "SBcl2 [20]", "value": "inactive"}, {"measurement": "Activity", "setting": "MUGMel1 [21]", "value": "inactive"}, {"measurement": "Activity", "setting": "MUGMel1 [22]", "value": "Active"}, {"measurement": "Activity", "setting": "WM793 [23]", "value": "inactive"}, {"measurement": "Activity", "setting": "WM164 [24]", "value": "Active"}, {"measurement": "Activity", "setting": "SBcl2 [25]", "value": "inactive"}, {"measurement": "Activity", "setting": "WM164 [26]", "value": "Active"}, {"measurement": "Activity", "setting": "WM793 [27]", "value": "inactive"}, {"measurement": "Activity", "setting": "WM164 [28]", "value": "inactive"}, {"measurement": "Activity", "setting": "SBcl2 [29]", "value": "inactive"}, {"measurement": "Activity", "setting": "SBcl2 [30]", "value": "inactive"}, {"measurement": "Activity", "setting": "MUGMel1 [31]", "value": "inactive"}, {"measurement": "Activity", "setting": "MUGMel1 [32]", "value": "inactive"}, {"measurement": "Activity", "setting": "SBcl2 [33]", "value": "inactive"}, {"measurement": "Activity", "setting": "WM164 [34]", "value": "inactive"}]}
